Experimental data published in US8106092B2, “Treatment of solid cancers” (priority 2004, dated 2012).

Tests used:
[1] = tested on: Lewis lung-OVA tumors; experiment: Lewis lung-OVA primary cure and secondary challenge repeated in Foxnl^nu mice; format: in vivo; conditions: PEP005-mediated cure of primary tumors
[2] = tested on: B16-OVA-specific CD8^+ T-cells; experiment: B16-OVA-specific CD8+ T-cell responses, ex vivo ELISPOT on d12; format: in vivo, C57BL/6 mice; conditions: d12 splenocytes, responses to SVYDFFVWL, KVPRNQDWL and SIINFEKL
Protocol: FIGS. 13A to C are graphical representations showing synergistic effects between PEP005-mediated cure of primaries and DC therapy on the growth of secondary tumors and on CD8^+ T-cell induction. (A) On d−3 C57BL/6 mice where inoculated with 2×10^6 B16-OVA cells on the right flank (primary tumor) and 2×10^4 B16-OVA cells on the left flank (secondary tumor). On d0 and d1 the primary B16-OVA tumors, which has reach 30.4 mm^2+SD6 were cured with i.t. injections of 25 μg of PEP005 formulated in PEG400. On d4 and d11 mice received DC therapy using DC2.4 cells pulsed with SVYDFFVWL [SEQ ID NO:1], KVPRNQDWL [SEQ ID NO:4] and SIINFEKL [SEQ ID NO:2] peptides, and ovalbumin (n=12, PEP005+DC). […] Animal groups were established and treated as in (A) except that on d12 mice were sacrificed and splenocytes analyzed in an ex vivo ELISPOT assay for responses to SVYDFFVWL [SEQ ID NO:1], KVPRNQDWL [SEQ ID NO:4] and SIINFEKL [SEQ ID NO:2] […]
To determine whether the synergistic effect of PEP005 and DC therapies seen in […] correlated with anti-cancer CD8^+ T-cell induction, a group of animals were established and treated as described for FIG. 13A except the animals were killed on d12 and their splenocytes analyzed for B16-OVA-specific CD8^+ T-cells responses. […] In the absence of treatment no significant B16-OVA-specific CD8^+ T-cell responses were detected (FIG. 13C, Controls).

[3] = tested on: B16 tumors; experiment: Example 2: sub-optimal topical PEP005 combined with M720/B16 vaccination and DC+IL-2, cure of primary B16 tumors; format: in vivo, C57BL/6 mice
Excerpt: To determine whether PEP005 (ingenol-3-angelate) treatment could synergize with (i) vaccine-induced anti-cancer CD4^+ T-cells/antibodies and/or (ii) DC vaccine-induced anti-cancer CD8^+ T-cells, topical PEP005 treatment was combined with vaccination using (i) B16 lysate emulsified in Montanide ISA 720 adjuvant (M720/B16) and (ii) DC2.4 cells sensitized with TRP-2 peptide, SVYDFFVWL [SEQ ID NO:1] (a dominant CD8^+ T-cell epitope for anti-B16 CM^+ T-cells) and activated with LPS (Camporeale et al, Can Res 63:3688, 2003) (DC). The latter group also received IL-2 to maintain the vaccine induced T-cells. The topical PEP005 dose (10 μg/mouse) was known not to be sufficient to cure most B16 tumors of reasonable size. Thus, this experiment sought to determine whether improvements in B16 cure rate could be achieved when sub-optimal topical PEP005 treatment was combined with other immune-based therapies.
B16 tumors were injected 2×10^4 s.c. in groups (n=5 per group) of C57BL/6 mice and after 12 days (d0) had reached 8-12 mm^2 in size. The groups of animal received the following treatments:
PEP005: On d0, the tumors in this group were treated topically with PEP005, 10 μg/mouse in 10 μl isopropanol gel.
PEP005+M720: On d−5 (day minus 5), the animals had received Montanide ISA 720 adjuvant (M720) emulsified 7:3 v:v (Elliott et al, Vaccine. 17(15-16):2009-2019, 1999) with water (volume 100 μl/mouse s.c.) and on d0, the tumors in this group were treated topically with PEP005.
PEP005+M720/B16: On d−5, the animals had received Montanide ISA 720 adjuvant (M720) emulsified 7:3 v:v (Elliott et al, 1999 supra) with B16 cell lysate (3×10^5 B16 cells per mouse s.c., volume 100 μl/mouse) and on d0, the tumors in this group were treated topically with PEP005. A modality was known to induce CD4^+ T-cells specific for B16.
PEP005+M720/B16+DC+IL-2: On d0, the tumors in this group were treated topically with PEP005 and had been given M720/B16 as for Group 4. The group also received on d0 DC in the form of a DC cell line, DC2.4. These cells were (i) sensitized with TRP-2 peptide, SVYDFFVWL [SEQ ID NO:1] […]

Q: `C/C=C(/C)C(=O)O[C@H]1C(C)=C[C@]23C(=O)[C@@H](C=C(CO)[C@@H](O)[C@]12O)[C@H]1[C@@H](C[C@H]3C)C1(C)C` [PEP005, ingenol-3-angelate] was tested. Which “protection against secondary challenge” value [1] did it give?
A: no protective effect

Q: What about the “B16-OVA-specific CD8+ T-cell responses” value [2] of the same compound?
A: about 120 spots/10^6 splenocytes

Q: What about the “regression of treated tumors” value ([3]; all PEP005 treated tumors) of the same compound?
A: regressed by treatment to below detectable size

Q: And the “day on which tumor became visible again / emerged” value ([3]; day (d) after treatment on d0, growth curves FIG. 7)?
A: 4-5

Q: And the “treated tumors re-emerging (failure rate)” value ([3]; topical 10 μg PEP005, combined PEP005/PEP005+M720 group n=10, tumors 8-12 mm^2)?
A: 90%
